In brackets after ≈: the same amount, converted by molar mass. Like-named read-outs stand apart in the source and are kept apart here.
How the values were obtained:
P. aeruginosa K767 = experiment: MIC assay (MHB microtitre, MTT); format: cell-based; conditions: Pseudomonas aeruginosa
P. aeruginosa K1119 = experiment: MIC assay (MHB microtitre, MTT); format: cell-based; conditions: Pseudomonas aeruginosa
S. aureus SA1199B = experiment: MIC assay (MHB microtitre, MTT); format: cell-based; conditions: Staphylococcus aureus
S. aureus ATCC25923 = experiment: MIC assay (MHB microtitre, MTT); format: cell-based; conditions: Staphylococcus aureus
S. aureus RN4220 = experiment: MIC assay (MHB microtitre, MTT); format: cell-based; conditions: Staphylococcus aureus
Procedure: Bacteria were cultured on nutrient agar (Oxoid) and incubated for 24 h at 37 ° C. prior to MIC determination. […] An inoculum density of 5×10^5 cfu of S. aureus was prepared in normal saline (9 g/l) by comparison with a 0.5 MacFarland turbidity standard. The inoculum (125 μl) was added to all wells and the microtitre plate was incubated at 37° C. for 18 h. For MIC determination, 20 μl of a 5 mg/ml methanolic solution of 3-[4,5-dimethylthiazol-2-yl]-2,5-diphenyltetrazolium bromide (MTT; Sigma) was added to each of the wells and incubated for 20 min. Bacterial growth was indicated by a colour change from yellow to dark blue. The MIC was recorded as the lowest concentration at which no growth was observed.

M. phlei ATCC11758 = experiment: MIC assay (MHB microtitre, MTT); format: cell-based; conditions: Mycolicibacterium phlei
M. fortuitum ATCC6841 = experiment: MIC assay (MHB microtitre, MTT); format: cell-based; conditions: Mycolicibacterium fortuitum
Group A Streptococcus = experiment: MIC on IsoSensitest agar / broth, clinical isolates; format: cell-based, S. pyogenes; conditions: in broth and agar, read-out: minimum inhibitory concentration
Procedure: (§1) Compound 7 was tested using bacteria which were recent clinical isolates, or were standard reference controls. The clinical isolates were selected to represent important resistant phenotypes currently prevalent in the UK and worldwide. They included (i) methicillin-resistant Staphylococcus aureus (MRSA), specifically the epidemic (E)MRSA-15 and 16 strains dominant in the UK; (ii) methicillin-resistant coagulase negative staphylococci (i.e. S. epidermidis, S. haemolyticus); (iii) vancomycin-resistant as well as susceptible Enterococcus faecalis and E. faecium; (iv) penicillin-resistant and—susceptible Streptococcus pneumoniae; (v) group A streptococci (=S. pyogenes, which remain universally susceptible to penicillin) and (vi) Clostridium difficile.
(§2) MICs were determined on IsoSensitest agar (ISA) (method of British Society for Antimicrobial Chemotherapy, http://www.bsac.org.uk) or by microdilution in IsoSensitest Broth (ISB). Both media were from Oxoid, Basingstoke, Hants. Plates were variously incubated, at 35-37° C., in air, air enriched with 5% CO2 or under anaerobic conditions.

S. aureus XU212 = experiment: microbe, parasite or virus in culture; format: cell-based; conditions: Staphylococcus aureus
[1] = tested on: vancomycin-resistant and vancomycin-sensitive Enterococcus faecalis; experiment: MIC on IsoSensitest agar / broth, clinical isolates; format: cell-based; conditions: in broth and agar, vancomycin-resistant and -sensitive E. faecalis, read-out: minimum inhibitory concentration
Procedure: as §1, §2

[2] = tested on: methicillin-sensitive coagulase-negative Staphylococcus haemolyticus; experiment: as above; format: cell-based; conditions: in broth and agar, methicillin-sensitive S. haemolyticus, read-out: minimum inhibitory concentration
Procedure: as §1, §2

[3] = tested on: methicillin-resistant coagulase-negative Staphylococcus epidermidis; experiment: as above; format: cell-based; conditions: in broth and agar, methicillin-resistant S. epidermidis, read-out: minimum inhibitory concentration
Procedure: as §1, §2

[4] = tested on: epidemic methicillin-resistant Staphylococcus aureus 15 and 16; experiment: as above; format: cell-based; conditions: in broth and agar, EMRSA-15 and 16 clinical isolates, read-out: minimum inhibitory concentration
Procedure: as §1, §2

[5] = tested on: methicillin-sensitive Staphylococcus aureus; experiment: as above; format: cell-based; conditions: in broth and agar, methicillin-sensitive S. aureus, read-out: minimum inhibitory concentration
Procedure: as §1, §2

[6] = tested on: penicillin-resistant and penicillin-sensitive Streptococcus pneumoniae; experiment: as above; format: cell-based; conditions: in broth and agar, penicillin-resistant and -sensitive S. pneumoniae, read-out: minimum inhibitory concentration
Procedure: as §1, §2

[7] = tested on: vancomycin-resistant and vancomycin-sensitive Enterococcus faecium; experiment: as above; format: cell-based; conditions: in broth and agar, vancomycin-resistant and -sensitive E. faecium, read-out: minimum inhibitory concentration
Procedure: as §1, §2

[8] = tested on: methicillin-sensitive coagulase-negative Staphylococcus epidermidis; experiment: as above; format: cell-based; conditions: in broth and agar, methicillin-sensitive S. epidermidis, read-out: minimum inhibitory concentration
Procedure: as §1, §2

[9] = tested on: NCTC6571 Staphylococcus aureus; experiment: MIC on IsoSensitest agar / broth, standard laboratory strain; format: cell-based; conditions: in broth and agar, read-out: minimum inhibitory concentration
Procedure: as §1, §2

Streptococcus pneumoniae = experiment: as above; format: cell-based; conditions: ATCC29212; in broth and agar; Streptococcus pneumoniae ATCC 29212; read-out: minimum inhibitory concentration
Procedure: as §1, §2

[10] = tested on: Enterococcus faecalis ATCC29212; experiment: as above; format: cell-based; conditions: in broth and agar, read-out: minimum inhibitory concentration
Procedure: as §1, §2

S. aureus EMRSA16 = experiment: MIC assay (MHB microtitre, MTT); format: cell-based; conditions: Staphylococcus aureus
M. smegmatis MC2 2700 = experiment: MIC assay (MHB microtitre, MTT); format: cell-based; conditions: Mycolicibacterium smegmatis, MC22700
S. aureus EMRSA15 = experiment: MIC assay (MHB microtitre, MTT); format: cell-based; conditions: Staphylococcus aureus
S. typhimurium L10 = experiment: MIC assay (MHB microtitre, MTT); format: cell-based; conditions: Salmonella enterica
S. typhimurium L354 = experiment: MIC assay (MHB microtitre, MTT); format: cell-based; conditions: Salmonella enterica
M. smegmatis ATCC14468 = experiment: MIC assay (MHB microtitre, MTT); format: cell-based; conditions: Mycolicibacterium smegmatis
[11] = tested on: panel of multidrug-resistant strains of Staphylococcus aureus; conditions: inventors' 2006 poster; cited from earlier work
[12] = has to be stabilised as a salt; cited from earlier work
[13] = tested on: MRSA and penicillin-resistant Staphylococcus aureus; conditions: cited from earlier work

Which MIC (P. aeruginosa K767; P. aeruginosa K767, read-out: MIC) does the source give for `CCn1cc(C(=O)O)c(=O)c2cc(F)c(N3CCNCC3)cc21` [Norfloxacin, norfloxacin, reference compound] here?
The MIC was 2 µg/mL (≈ 6.26 µM).

And the MIC (P. aeruginosa K1119)?
The MIC was 2 µg/mL (≈ 6.26 µM).

And the MIC (S. aureus SA1199B)?
Its MIC is 32 µg/mL (≈ 100 µM).

What about the MIC (S. aureus ATCC25923) of the same compound?
The MIC was 1 µg/mL (≈ 3.13 µM).

Which MIC (S. aureus RN4220) does the source give for `CC[C@H]1OC(=O)[C@H](C)[C@@H](O[C@H]2C[C@@](C)(OC)[C@@H](O)[C@H](C)O2)[C@H](C)[C@@H](O[C@@H]2O[C@H](C)C[C@H](N(C)C)[C@H]2O)[C@](C)(O)C[C@@H](C)C(=O)[C@H](C)[C@@H](O)[C@]1(C)O` [Erythromycin, erythromycin, reference compound] here?
The MIC was 128 µg/mL (≈ 174 µM).

For `CCC(C)C(=O)c1c(O)cc(O)cc1OC/C=C(\C)CCC=C(C)C` (centres unmarked) [Compound 7], which MIC (M. phlei ATCC11758) is on record?
Its MIC is 4 µg/mL (≈ 11.5 µM).

And the MIC (M. fortuitum ATCC6841)?
Its MIC is 8 µg/mL (≈ 23.1 µM).

And the MIC (P. aeruginosa K767; K767)?
Its MIC is > 512 µg/mL.

And the MIC (P. aeruginosa K1119)?
The MIC was > 512 µg/mL.

And the MIC (S. aureus RN4220)?
The MIC was 1 µg/mL (≈ 2.89 µM).

And the MIC (Group A Streptococcus)?
The MIC was 4 µg/mL (≈ 11.5 µM).

What about the MIC (S. aureus SA1199B) of the same compound?
Its MIC is 1 µg/mL (≈ 2.89 µM).

What about the MIC (S. aureus XU212) of the same compound?
Its MIC is 1 µg/mL (≈ 2.89 µM).

And the MIC [1]?
The MIC was 4 µg/mL (≈ 11.5 µM).

And the MIC [2]?
Its MIC is 16 µg/mL (≈ 46.2 µM).

What about the MIC [3] of the same compound?
The MIC was 2 to 8 µg/mL (≈ 5.77 to 23.1 µM).

And the MIC [4]?
Its MIC is 2 to 4 µg/mL (≈ 5.77 to 11.5 µM).

What about the MIC [5] of the same compound?
The MIC was 2 to 8 µg/mL (≈ 5.77 to 23.1 µM).

And the MIC [6]?
Its MIC is 2 to 4 µg/mL (≈ 5.77 to 11.5 µM).

And the MIC [7]?
Its MIC is 2 to 4 µg/mL (≈ 5.77 to 11.5 µM).

And the MIC [8]?
Its MIC is 2 to 4 µg/mL (≈ 5.77 to 11.5 µM).

And the MIC [9]?
Its MIC is 4 µg/mL (≈ 11.5 µM).

And the MIC (Streptococcus pneumoniae)?
Its MIC is 4 µg/mL (≈ 11.5 µM).

What about the MIC [10] of the same compound?
Its MIC is 4 µg/mL (≈ 11.5 µM).

What about the MIC (S. aureus EMRSA16) of the same compound?
The MIC was 1 µg/mL (≈ 2.89 µM).

What about the MIC (M. smegmatis MC2 2700) of the same compound?
The MIC was 4 µg/mL (≈ 11.5 µM).

And the MIC (S. aureus ATCC25923)?
The MIC was 1 µg/mL (≈ 2.89 µM).

And the MIC (S. aureus EMRSA15)?
The MIC was 0.5 µg/mL (≈ 1.44 µM).

What about the MIC (S. typhimurium L10) of the same compound?
Its MIC is > 512 µg/mL.

And the MIC (S. typhimurium L354)?
Its MIC is > 512 µg/mL.

What about the MIC (M. smegmatis ATCC14468) of the same compound?
The MIC was 4 µg/mL (≈ 11.5 µM).

What does the source list for `NNC(=O)c1ccncc1` [Isoniazid]?
MIC (M. phlei ATCC11758): 2 µg/mL (≈ 14.6 µM); MIC (M. fortuitum ATCC6841): 4 µg/mL (≈ 29.2 µM); MIC (M. smegmatis MC2 2700): 2 µg/mL (≈ 14.6 µM); MIC (M. smegmatis ATCC14468): 2 µg/mL (≈ 14.6 µM)

Which minimum inhibitory concentration [11] does the source give for `O=c1c2cc(O)ccc2oc2cccc(O)c12` [1,7-dihydroxyxanthone] here?
Its minimum inhibitory concentration is 128 to 256 µg/mL.

With `CC(C)=CCC[C@]1(C)[C@@H](CC=C(C)C)C[C@@]2(CC=C(C)C)C(=O)[C@]1(C(=O)C(C)C)C(=O)C(CC=C(C)C)=C2O` [Hyperforin] as the compound, how does the stability [12] read?
The stability was “unstable”.

And the “Minimum Inhibitory Concentration (MIC)” value [13]?
Its value is 0.1 to 0.5 µg/mL.

For `Cc1onc(-c2ccccc2)c1C(=O)N[C@@H]1C(=O)N2[C@@H]1SC(C)(C)[C@@H]2C(=O)O` [Oxacillin, reference compound], which MIC (S. aureus EMRSA16) is on record?
The MIC was 512 µg/mL (≈ 1280 µM).

And the MIC (S. aureus EMRSA15)?
Its MIC is 16 µg/mL (≈ 39.9 µM).

Which results are given for `CC[C@@H](CO)NCCN[C@@H](CC)CO` [Ethambutol]?
MIC (M. phlei ATCC11758): 0.5 µg/mL (≈ 2.45 µM); MIC (M. fortuitum ATCC6841): 0.5 µg/mL (≈ 2.45 µM); MIC (M. smegmatis MC2 2700): 0.5 µg/mL (≈ 2.45 µM); MIC (M. smegmatis ATCC14468): 0.5 µg/mL (≈ 2.45 µM)

Source: US20100222426A1, “Anti-Bacterial Agents” (priority 2007, published 2010)
